Measured values from patent publication US12110258B2, “Coated fertilizer containing urease inhibitor” (SABIC Agri-Nutrients Company, priority 2018, dated 2024).

Test: Inhibitor Stability Test (HPLC, non-degraded NBTPT remaining after storage)
Conditions: 2 weeks, RT (23 to 26° C.)
Protocol: Inhibitor Stability Test: The stability test is used to indicate changes in stability of the urease inhibitor in different coated fertilizers or coating compositions under multiple conditions for different amounts of time. HPLC analysis was used to determine the amount of non-degraded inhibitor remaining at the end of the testing periods. Briefly, for the HPLC analysis procedure, approximately 4 grams of a sample and 20 ml of diluent was added into a 50 ml polypropylene tube. The sample was sonicated for 30 minutes with intermediate shaking and then vortexed for 1 hour using a vortex shaker. After vortexing, the sample was filtered using a 0.45μ syringe filter into a HPLC vial and injected into the HPLC.
Chromatographic Conditions:
• Column: Phenomenex, Luna 5u Pnenyl hexyl 250*4.6, 5μ • Column oven temperature: 350° C. • Injection Vol.: 5 μL • Flow rate: 1.00 mL/min • Mobile Phase: Reservoir A—Milli Q Water; Reservoir C—Acetonitrile; Isocratic—Milli Q water/Acetonitrile (80:20% v/v) • Run Time: 15 minutes • Wavelength: 207 nm
Calculation: Calibration standards were injected in duplicate and the calibration curve for NBTPT was constructed by plotting the concentration (mg/mL) in X-axis and Instrument response (area) in the Y-axis. The unknown concentrations of NBTPT in the samples were calculated using the formula y=mx+c with the appropriate dilution factor applied. […]

## CCCCNP(N)(N)=S [compound 4, N-(n-butyl) thiophosphoric triamide]
  % NBTPT Degradation: 0%
